# Laboratory results from patent US10253039B2, “Inhibitors of bacterial DNA gyrase with efficacy against gram-negative bacteria” (priority 2014, dated 2019).
# Test system: E. coli BW25113
# Assay: MIC, microdilution in 96-well plates
# Assay type: cell-based
# Details: Escherichia coli, BW25113, B: E. coli BW25113; read-out: MIC
# Description: (§1) A microdilution method in 96-well plates was used and the MIC protocol established by the Clinical Laboratory Standards Institute was followed. From a growing subculture, a 1:10000 inoculum of each strain in Luria-Bertani media was prepared and aliquoted 100 μL in 4 columns of wells, except for the top row wells, which contained 200 μL of inoculum. A solution of gyramide C2 was aliquoted into 3 of the wells containing 200 μL and DMSO was added to the 4th well. The liquid in each of wells was mixed with a multi-channel pipet and 100 μL was transferred to the next well and mixed. The 2-fold dilution was continued down the 96-well plate until 100 μL was left, which was discarded. The plates were incubated at 37° C. with shaking for 16-18 hours. The MIC was determined as the lowest concentration that inhibited growth and had no turbidity by visual inspection.
# (§2) Minimum inhibitory concentrations of various gyramide compounds against 20 strains of bacteria were determined using the procedure described above.
row,SMILES,MIC
1,O=S(=O)(N[C@@H]1CCN(Cc2ccc(-c3ccncc3)cc2)C1)c1cccc(OC(F)(F)F)c1 [Compound 15],> 8 µg/mL
2,CC(C)Oc1c(Cl)cc(CN2CC[C@@H](NS(=O)(=O)c3cccc(C(F)(F)F)c3)C2)cc1Cl [Compound 98],> 8 µg/mL
3,N#Cc1cccc(S(=O)(=O)N[C@@H]2CCN(Cc3ccc(-c4cccs4)cc3)C2)c1 [Compound 25],~8 µg/mL
4,O=S(=O)(N[C@@H]1CCN(Cc2ccc(-c3ccccc3)cc2)C1)c1cc(C(F)(F)F)ccc1Cl [Compound 47],> 8 µg/mL
5,O=S(=O)(N[C@@H]1CCN(Cc2ccc(-c3ccc(Cl)cc3)cc2)C1)c1cccc(C(F)(F)F)c1 [Compound 102],> 8 µg/mL

# Test system: Edwardsiella tarda
# Assay: MIC, microdilution in 96-well plates
# Assay type: cell-based
# Details: D: Edwardsiella tarda
# Description: as §1, §2
row,SMILES,MIC
1,O=S(=O)(N[C@@H]1CCN(Cc2ccc(-c3ccncc3)cc2)C1)c1cccc(OC(F)(F)F)c1 [Compound 15],> 8 µg/mL
2,CC(C)Oc1c(Cl)cc(CN2CC[C@@H](NS(=O)(=O)c3cccc(C(F)(F)F)c3)C2)cc1Cl [Compound 98],> 8 µg/mL
3,N#Cc1cccc(S(=O)(=O)N[C@@H]2CCN(Cc3ccc(-c4cccs4)cc3)C2)c1 [Compound 25],> 8 µg/mL
4,O=S(=O)(N[C@@H]1CCN(Cc2ccc(-c3ccccc3)cc2)C1)c1cc(C(F)(F)F)ccc1Cl [Compound 47],> 8 µg/mL
5,O=S(=O)(N[C@@H]1CCN(Cc2ccc(-c3ccc(Cl)cc3)cc2)C1)c1cccc(C(F)(F)F)c1 [Compound 102],> 8 µg/mL

# Test system: Streptococcus agalactiae
# Assay: MIC, 20-strain panel
# Assay type: cell-based
# Details: not given
# Description: as §1, §2
row,SMILES,MIC
1,O=S(=O)(N[C@@H]1CCN(Cc2ccc(-c3ccncc3)cc2)C1)c1cccc(OC(F)(F)F)c1 [Compound 15],> 8 µg/mL
2,CC(C)Oc1c(Cl)cc(CN2CC[C@@H](NS(=O)(=O)c3cccc(C(F)(F)F)c3)C2)cc1Cl [Compound 98],> 8 µg/mL
3,N#Cc1cccc(S(=O)(=O)N[C@@H]2CCN(Cc3ccc(-c4cccs4)cc3)C2)c1 [Compound 25],> 8 µg/mL
4,O=S(=O)(N[C@@H]1CCN(Cc2ccc(-c3ccccc3)cc2)C1)c1cc(C(F)(F)F)ccc1Cl [Compound 47],> 8 µg/mL
5,O=S(=O)(N[C@@H]1CCN(Cc2ccc(-c3ccc(Cl)cc3)cc2)C1)c1cccc(C(F)(F)F)c1 [Compound 102],> 8 µg/mL

# Test system: Staphylococcus epidermidis
# Assay: MIC, 20-strain panel
# Assay type: cell-based
# Details: not given
# Description: as §1, §2
row,SMILES,MIC
1,O=S(=O)(N[C@@H]1CCN(Cc2ccc(-c3ccncc3)cc2)C1)c1cccc(OC(F)(F)F)c1 [Compound 15],> 8 µg/mL
2,CC(C)Oc1c(Cl)cc(CN2CC[C@@H](NS(=O)(=O)c3cccc(C(F)(F)F)c3)C2)cc1Cl [Compound 98],> 8 µg/mL
3,N#Cc1cccc(S(=O)(=O)N[C@@H]2CCN(Cc3ccc(-c4cccs4)cc3)C2)c1 [Compound 25],> 8 µg/mL
4,O=S(=O)(N[C@@H]1CCN(Cc2ccc(-c3ccccc3)cc2)C1)c1cc(C(F)(F)F)ccc1Cl [Compound 47],~8 µg/mL
5,O=S(=O)(N[C@@H]1CCN(Cc2ccc(-c3ccc(Cl)cc3)cc2)C1)c1cccc(C(F)(F)F)c1 [Compound 102],4 µg/mL

# Test system: Salmonella enterica subsp. enterica typhimurium
# Assay: MIC, 20-strain panel
# Assay type: cell-based
# Details: F: Salmonella enterica subsp. enterica Typhimurium
# Description: as §1, §2
row,SMILES,MIC
1,O=S(=O)(N[C@@H]1CCN(Cc2ccc(-c3ccncc3)cc2)C1)c1cccc(OC(F)(F)F)c1 [Compound 15],> 8 µg/mL
2,CC(C)Oc1c(Cl)cc(CN2CC[C@@H](NS(=O)(=O)c3cccc(C(F)(F)F)c3)C2)cc1Cl [Compound 98],> 8 µg/mL
3,N#Cc1cccc(S(=O)(=O)N[C@@H]2CCN(Cc3ccc(-c4cccs4)cc3)C2)c1 [Compound 25],4 µg/mL
4,O=S(=O)(N[C@@H]1CCN(Cc2ccc(-c3ccccc3)cc2)C1)c1cc(C(F)(F)F)ccc1Cl [Compound 47],~8 µg/mL
5,O=S(=O)(N[C@@H]1CCN(Cc2ccc(-c3ccc(Cl)cc3)cc2)C1)c1cccc(C(F)(F)F)c1 [Compound 102],> 8 µg/mL

# Test system: Streptococcus pyogenes
# Assay: MIC, 20-strain panel
# Assay type: cell-based
# Details: not given
# Description: as §1, §2
row,SMILES,MIC
1,O=S(=O)(N[C@@H]1CCN(Cc2ccc(-c3ccncc3)cc2)C1)c1cccc(OC(F)(F)F)c1 [Compound 15],> 8 µg/mL
2,CC(C)Oc1c(Cl)cc(CN2CC[C@@H](NS(=O)(=O)c3cccc(C(F)(F)F)c3)C2)cc1Cl [Compound 98],> 8 µg/mL
3,N#Cc1cccc(S(=O)(=O)N[C@@H]2CCN(Cc3ccc(-c4cccs4)cc3)C2)c1 [Compound 25],> 8 µg/mL
4,O=S(=O)(N[C@@H]1CCN(Cc2ccc(-c3ccccc3)cc2)C1)c1cc(C(F)(F)F)ccc1Cl [Compound 47],~8 µg/mL
5,O=S(=O)(N[C@@H]1CCN(Cc2ccc(-c3ccc(Cl)cc3)cc2)C1)c1cccc(C(F)(F)F)c1 [Compound 102],~8 µg/mL

# Test system: Staphylococcus saprophyticus subsp. saprophyticus
# Assay: MIC, 20-strain panel
# Assay type: cell-based
# Details: not given
# Description: as §1, §2
row,SMILES,MIC
1,O=S(=O)(N[C@@H]1CCN(Cc2ccc(-c3ccncc3)cc2)C1)c1cccc(OC(F)(F)F)c1 [Compound 15],> 8 µg/mL
2,CC(C)Oc1c(Cl)cc(CN2CC[C@@H](NS(=O)(=O)c3cccc(C(F)(F)F)c3)C2)cc1Cl [Compound 98],> 8 µg/mL
3,N#Cc1cccc(S(=O)(=O)N[C@@H]2CCN(Cc3ccc(-c4cccs4)cc3)C2)c1 [Compound 25],> 8 µg/mL
4,O=S(=O)(N[C@@H]1CCN(Cc2ccc(-c3ccccc3)cc2)C1)c1cc(C(F)(F)F)ccc1Cl [Compound 47],> 8 µg/mL
5,O=S(=O)(N[C@@H]1CCN(Cc2ccc(-c3ccc(Cl)cc3)cc2)C1)c1cccc(C(F)(F)F)c1 [Compound 102],> 8 µg/mL

# Test system: E. coli MG1655
# Assay: MIC, 20-strain panel
# Assay type: cell-based
# Details: Escherichia coli, MG1655, A: E. coli MG1655; read-out: MIC
# Description: as §1, §2
row,SMILES,MIC
1,O=S(=O)(N[C@@H]1CCN(Cc2ccc(-c3ccncc3)cc2)C1)c1cccc(OC(F)(F)F)c1 [Compound 15],> 8 µg/mL
2,CC(C)Oc1c(Cl)cc(CN2CC[C@@H](NS(=O)(=O)c3cccc(C(F)(F)F)c3)C2)cc1Cl [Compound 98],> 8 µg/mL
3,N#Cc1cccc(S(=O)(=O)N[C@@H]2CCN(Cc3ccc(-c4cccs4)cc3)C2)c1 [Compound 25],~8 µg/mL
4,O=S(=O)(N[C@@H]1CCN(Cc2ccc(-c3ccccc3)cc2)C1)c1cc(C(F)(F)F)ccc1Cl [Compound 47],> 8 µg/mL
5,O=S(=O)(N[C@@H]1CCN(Cc2ccc(-c3ccc(Cl)cc3)cc2)C1)c1cccc(C(F)(F)F)c1 [Compound 102],> 8 µg/mL

# Test system: Shigella flexneri
# Assay: MIC, 20-strain panel
# Assay type: cell-based
# Details: G: Shigella flexneri
# Description: as §1, §2
row,SMILES,MIC
1,O=S(=O)(N[C@@H]1CCN(Cc2ccc(-c3ccncc3)cc2)C1)c1cccc(OC(F)(F)F)c1 [Compound 15],> 8 µg/mL
2,CC(C)Oc1c(Cl)cc(CN2CC[C@@H](NS(=O)(=O)c3cccc(C(F)(F)F)c3)C2)cc1Cl [Compound 98],> 8 µg/mL
3,N#Cc1cccc(S(=O)(=O)N[C@@H]2CCN(Cc3ccc(-c4cccs4)cc3)C2)c1 [Compound 25],> 8 µg/mL
4,O=S(=O)(N[C@@H]1CCN(Cc2ccc(-c3ccccc3)cc2)C1)c1cc(C(F)(F)F)ccc1Cl [Compound 47],> 8 µg/mL
5,O=S(=O)(N[C@@H]1CCN(Cc2ccc(-c3ccc(Cl)cc3)cc2)C1)c1cccc(C(F)(F)F)c1 [Compound 102],> 8 µg/mL

# Test system: E. coli JW5503 (deltolC)
# Assay: MIC, 20-strain panel
# Assay type: cell-based
# Details: Escherichia coli, C: E. coli JW5503 (deltolC)
# Description: as §1, §2
row,SMILES,MIC
1,O=S(=O)(N[C@@H]1CCN(Cc2ccc(-c3ccncc3)cc2)C1)c1cccc(OC(F)(F)F)c1 [Compound 15],4 µg/mL
2,CC(C)Oc1c(Cl)cc(CN2CC[C@@H](NS(=O)(=O)c3cccc(C(F)(F)F)c3)C2)cc1Cl [Compound 98],> 8 µg/mL
3,N#Cc1cccc(S(=O)(=O)N[C@@H]2CCN(Cc3ccc(-c4cccs4)cc3)C2)c1 [Compound 25],0.25 µg/mL
4,O=S(=O)(N[C@@H]1CCN(Cc2ccc(-c3ccccc3)cc2)C1)c1cc(C(F)(F)F)ccc1Cl [Compound 47],1 µg/mL
5,O=S(=O)(N[C@@H]1CCN(Cc2ccc(-c3ccc(Cl)cc3)cc2)C1)c1cccc(C(F)(F)F)c1 [Compound 102],~8 µg/mL

# Test system: Klebsiella pneumoniae subsp. pneumoniae
# Assay: MIC, 20-strain panel
# Assay type: cell-based
# Details: E: Klebsiella pneumoniae subsp. pneumoniae
# Description: as §1, §2
row,SMILES,MIC
1,O=S(=O)(N[C@@H]1CCN(Cc2ccc(-c3ccncc3)cc2)C1)c1cccc(OC(F)(F)F)c1 [Compound 15],> 8 µg/mL
2,CC(C)Oc1c(Cl)cc(CN2CC[C@@H](NS(=O)(=O)c3cccc(C(F)(F)F)c3)C2)cc1Cl [Compound 98],> 8 µg/mL
3,N#Cc1cccc(S(=O)(=O)N[C@@H]2CCN(Cc3ccc(-c4cccs4)cc3)C2)c1 [Compound 25],> 8 µg/mL
4,O=S(=O)(N[C@@H]1CCN(Cc2ccc(-c3ccccc3)cc2)C1)c1cc(C(F)(F)F)ccc1Cl [Compound 47],> 8 µg/mL
5,O=S(=O)(N[C@@H]1CCN(Cc2ccc(-c3ccc(Cl)cc3)cc2)C1)c1cccc(C(F)(F)F)c1 [Compound 102],> 8 µg/mL

# Test system: Staphylococcus aureus subsp. aureus
# Assay: MIC, 20-strain panel
# Assay type: cell-based
# Details: H: Staphylococcus aureus subsp. aureus, read-out: MIC
# Description: as §1, §2
row,SMILES,MIC
1,O=S(=O)(N[C@@H]1CCN(Cc2ccc(-c3ccncc3)cc2)C1)c1cccc(OC(F)(F)F)c1 [Compound 15],> 8 µg/mL
2,CC(C)Oc1c(Cl)cc(CN2CC[C@@H](NS(=O)(=O)c3cccc(C(F)(F)F)c3)C2)cc1Cl [Compound 98],> 8 µg/mL
3,N#Cc1cccc(S(=O)(=O)N[C@@H]2CCN(Cc3ccc(-c4cccs4)cc3)C2)c1 [Compound 25],> 8 µg/mL
4,O=S(=O)(N[C@@H]1CCN(Cc2ccc(-c3ccccc3)cc2)C1)c1cc(C(F)(F)F)ccc1Cl [Compound 47],> 8 µg/mL
5,O=S(=O)(N[C@@H]1CCN(Cc2ccc(-c3ccc(Cl)cc3)cc2)C1)c1cccc(C(F)(F)F)c1 [Compound 102],8 µg/mL
